Results: US20260078335A1, “MICROBIAL ENHANCED COMPOSITIONS COMPRISING SURFACTANT BLENDS WHICH OVERCOME ANTAGONISTIC SURFACTANT INCOMPATIBILITY” (Stepan Company, priority 2023, published 2026)
Like-named read-outs stand apart in the source and are kept apart here.

Columns and labels:
Type in all cases: cell-based
[1] = system: pathogenic bacteria; assay: preservative screening test, bacterial; details: reduction of live count
Protocol: (§1) A preservative screening study was performed to determine a sufficient amount of preservative to include in selected MEC formulations to provide efficacy against pathogenic bacteria and fungi. The base formulations used in the study were a formulation similar to Composition A from Example 5, but without the spores, and a formulation similar to the Example 14 formulation, but without the spores and 2-phenoxyethanol. Test formulations were prepared by adding different preservatives in different amounts to the base formulations. Each test formulation was tested for efficacy against pathogenic organisms using a preservative screening test. For the screening test, microorganisms are grown separately according to industry standards described in PCPC Test Method M-7 “A Rapid Method for Preservation Testing of Water-Miscible Personal Care Products”, and combined as an inoculum challenge prior to introduction to the formulation test sample. The inoculum is added to each test formulation for predetermined time points, and after appropriate nutrition, the test formulations are evaluated for remaining live count. Reduction of live count is calculated against a control, and a sample showing sufficient percent reduction is accepted as an effectively preserved formulation. Table 4 provides the details of the preservative and amount used in each test formulation and the results of the screen testing.

[2] = system: fungi; assay: preservative screening test, fungal; details: reduction of live count
Protocol: A preservative screening study was performed to determine a sufficient amount of preservative to include in selected MEC formulations to provide efficacy against pathogenic bacteria and fungi. […] Test formulations were prepared by adding different preservatives in different amounts to the base formulations. Each test formulation was tested for efficacy against pathogenic organisms using a preservative screening test. For the screening test, microorganisms are grown separately according to industry standards described in PCPC Test Method M-7 “A Rapid Method for Preservation Testing of Water-Miscible Personal Care Products”, and combined as an inoculum challenge prior to introduction to the formulation test sample. The inoculum is added to each test formulation for predetermined time points, and after appropriate nutrition, the test formulations are evaluated for remaining live count. Reduction of live count is calculated against a control, and a sample showing sufficient percent reduction is accepted as an effectively preserved formulation.

[3] = system: pathogenic bacteria and fungi; assay: preservative screening test, overall result
Protocol: as §1

[4] = system: beneficial microorganisms; assay: compatibility with beneficial microorganisms (description, test not specified); details: stated in the description, no test details
Protocol: Incompatibility between a surfactant and a beneficial microorganism has been investigated in various ways, such as a standard Zone of Inhibition test, a standard agar plating test, or a standard resazurin (7-hydroxy-10-oxidophenoxazin-10-ium-3-one, sodium) (a blue fluorogenic dye) compatibility assay. In a Zone of Inhibition test, microorganisms are grown, cultured, diluted down to target levels, and then applied to a Petri dish containing agar nutrients. Test samples containing the surfactant of interest are diluted and loaded into an agar well created within the agar nutrient. The plates are incubated and microorganism growth is allowed to develop. The test sample diffuses through the agar and, if the surfactant in the test sample has an inhibitory effect on the microorganism, a lack of growth halo will be observed around the sample loaded well. This halo is referred to as the zone of inhibition. The larger the zone, the bigger the effect of inhibition. Major suitability limitations for non-antibiotics test samples for this test method are inherent large dilution of active, agar diffusion challenges, and nutrient media incompatibilities (neutralization, precipitation, etc). Although this method has been used in the medical field for antibiotics very successfully for decades, it has low suitability when testing non-antibiotic samples. In a standard agar plating test, test samples containing the surfactant of interest and microorganisms are exposed, diluted several orders of magnitude, and plated onto a nutritive agar that is incubated. After an incubation period appropriate for the species, the microorganism growth pattern is evaluated against appropriate controls. […] The test samples are incubated and then inspected for colorometric and fluorescence change. Test samples that are blue and have low fluorescence indicate no biological activity and incompatibility between the surfactant and the microorganism. Test samples that are pink and have high fluorescence indicate biological activity and compatibility of the surfactant with the microorganism. […]

[5] = system: Bacillus spore blend; assay: un-dyed EVOO test for germination and growth; details: 0.2 wt % active surfactant, 1×10^7 CFU/g Bacillus spore blend; 5 days shaking; FIG. 11
Protocol: Replicate test compositions were prepared to evaluate the ability of the alkyl sarcosinate and alkyl betaine surfactant blend to overcome the antagonistic incompatibility between each surfactant individually and the bacterial spores. The formulation for testing comprised 20 wt % sodium lauroyl sarcosinate (30% actives), 32 wt % cetyl betaine (30% actives), 3.5 wt % of a commercially available Bacillus spore blend containing 100×10^9 CFU/g Bacillus spores, 4 wt % potassium nitrate, lactic acid (88% active) to adjust the pH to 5.5-6.0, and the remainder water. The test compositions were prepared by diluting the test formulation in water to 0.3% strength, and adding 2 wt % of 3.3 g/L Nutrient Mix (3 g/L Tryptic Soy broth and 0.3 g/L Yeast Extract). Germination and growth of bacterial spores were visually evaluated using an un-dyed EVOO test. […] Growth and biological activity of the microorganism is evident from haze that develops in the test composition, which can be visually detected. […]
The test compositions were visually evaluated for germination and growth of the bacterial spores using the un-dyed EVOO test described above, except that the test compositions were photographed after 5 days of orbital-mixer shaking at setting “5”.

[6] = system: Bacillus spores
[7] = 1.5% active, base formula Example 5, pH 6.5-7.0
[8] = 1.5% active, base formula Example 5, pH 9.0
[9] = 1.5% active, base formula Example 14, pH 9.0
[10] = 1.5% active, base formula Example 14, pH N/A
[11] = 1.0% active, base formula Example 14, pH 5.0
[12] = resazurin assay, FIG. 1, inhibitory if composition with less than 1.0 g/L surfactant remains blue, no fluorescence

## OCCOc1ccccc1 [2-phenoxyethanol]
[1]; [7]
  Bacterial 24 hours: <50%
  Bacterial 7 days: <50%
[1]; [8]
  Bacterial 24 hours: 99.4%
  Bacterial 7 days: >99.6%
[1]; [9]
  Bacterial 24 hours: 98.4%
  Bacterial 7 days: >99.6%
[1]; [10]
  Bacterial 7 days: 87.5%
[2]; [7]
  Fungal 24 hours: <50%
  Fungal 7 days: <50%
[2]; [8]
  Fungal 24 hours: 29.3%
  Fungal 7 days: <50%
[2]; [9]
  Fungal 24 hours: 75.0%
  Fungal 7 days: 95.6%
[2]; [10]
  Fungal 7 days: <50%
[3]; 1.5 wt %, even at a pH of 9.0, either base formulation
  efficacy against pathogenic bacteria and fungi: not sufficient

## O=C(O)c1ccccc1 [Benzoic Acid]
[1]; [11]
  Bacterial 24 hours: >99.6%
  Bacterial 7 days: >99.6%
[2]; [11]
  Fungal 24 hours: 99.6%
  Fungal 7 days: 99.6%
[3]; [11]
  Result: Pass

## C=CCCCCCCCC(=O)N(C)C [STEPOSOL® MET-10U]
[4]
  compatibility with the beneficial microorganisms: compatible

## O.O.O=C([O-])CC(O)(CC(=O)[O-])C(=O)[O-].[Na+].[Na+].[Na+] [sodium citrate dihydrate]
[4]
  compatibility with the beneficial microorganisms: compatible

## O=C([O-])[C@H](O)[C@@H](O)[C@H](O)[C@H](O)CO.[Na+] [sodium gluconate]
[4]
  compatibility with the beneficial microorganisms: compatible

## CCCCCCCCCCCCOS(=O)(=O)[O-].[Na+] [sodium lauryl sulfate]
[5]
  germination and growth of bacterial spores: strong inhibition

## cocoamidopropyl betaine [CAPB]
[6]; [12]
  compatibility with Bacillus spores: inhibitory

## lauramine oxide
[5]
  germination and growth of bacterial spores: strong inhibition

## lauryl alcohol with 8 moles of ethylene oxide [laureth 8EO]
[6]
  compatibility with Bacillus spores: inhibitory

## sodium lauryl ether sulfate 2EO [SLES]
[6]; [12]
  compatibility with Bacillus spores: inhibitory
